From article PMC12475274, “Harnessing indole scaffolds to identify small-molecule IRE1α inhibitors modulating XBP1 mRNA splicing” (Nature Communications, 2025) come the findings set out here.

“And” between values parts separate entries of the source, which are not always exact repeats. Identical values can stand only once. “Also recorded” adds a separate entry of the source. Like-named read-outs stand apart in the source and are kept apart here. Bounds are passed on as bounds.

The target in experiment [1] is T1, phosphorylated IRE1α (p-IRE1α) (Homo sapiens, UniProt O75460).
T1 construct: Human IRE1α kinase and RNase domain (residues 547–977) was subcloned into pLIB plasmid; His tag (with TEV cleavage site) (N, cleaved yes); made in house; host or cells: Sf9 insect cells, baculovirus (Bac-to-Bac)
As to the kind of experiment: FRET-based IRE1α RNase activity assay, phosphorylated IRE1α. It counts as biochemical. As to conditions: for inhibition at 50 µM: FRET assay at 50 μM, read-out: p-IRE1α inhibition%. How it is done:
(§1) Human IRE1α kinase and RNase domain (residues 547–977) was subcloned into pLIB plasmid with a His tag and TEV cleavage site, and expressed using Bac-to-Bac expression system. The primers used are listed in Supplementary Table S3. The protein purification was performed following established procedures. Briefly, Sf9 cells were infected with baculovirus and incubated at 27 °C 110 rpm for 72 h. The cells were collected by centrifugation at 4000 × g for 15 min and the cell pellet was resuspended in lysis buffer (50 mM HEPES pH 7.5, 300 mM NaCl, 10% glycerol, 1 mM MgCl2, 1 mM TCEP, 5 mM imidazole), then supplemented with 1:10,000 benzonase (Sigma, E1014), 1 tablet/25 mL […]™ Protease Inhibitor Cocktail tablets (Sigma, S8830) and 1 mM PMSF before lysed by sonication at 4 °C. […] The protein elution was incubated with TEV protease to remove His tag at 4 °C overnight. Then the sample was diluted 1:6 in buffer (50 mM HEPES pH 7.5, 1 mM TCEP, 5% glycerol) and loaded onto a 5 mL pre-packaged Q HP anion exchange column (Cytiva, HiTrap Q HP) pre-equilibrated with QA buffer (50 mM HEPES pH 7.5, 50 mM NaCl, 1 mM TCEP, 5% glycerol). The unphosphorylated and phosphorylated protein was separated by eluting the protein with a very shallow gradient with 0-30% buffer QB (50 mM HEPES pH 7.5, 1 M NaCl, 1 mM TCEP, 5% glycerol) over 80 CV. Different peaks were collected separately and verified by LC-MS. The fully phosphorylated fraction was collected and further purified by size exclusion chromatography (Cytiva, HiLoad 16/600 Superdex 200 pg,) with SEC buffer (25 mM HEPES pH 7.5, 250 mM NaCl, 1 mM TCEP, 10% glycerol) and fractioned as monomeric peak. The rest protein fraction from the Q HP anion exchange column was incubated with Lambda protein phosphatase (New England BioLabs, P0753S) overnight at 4 °C, the dephosphorylation was confirmed by LC-MS. The unphosphorylated protein was further purified by size exclusion chromatography with the SEC buffer described above. The purified phosphorylated (p-IRE1α) and dephosphorylated (IRE1α) protein aliquots were stored at −80 °C for future usage.
(§2) The dual-labeled RNA substrate with a FAM at 5’ and the BHQ-1 at 3’ containing the XBP1 sequence (5′FAM-[…]-3′BHQ1) was purchased from Integrated DNA Technologies (IDT). The FRET-based IRE1α RNase activity assay was carried out in reaction buffer containing 20 mM HEPES pH 7.5, 50 mM KOAc, 1 mM MgOAc2, 1 mM DTT, 0.05% v/v TritonX-100, at a total reaction volume of 20 μL in a 384-well black plate (4514, Corning). For unphosphorylated IRE1α (IRE1α), a final concentration of 40 nM IRE1α protein and 100 nM RNA substrate was used. For phosphorylated IRE1 (p-IRE1α), a final concentration of 4 nM p-IRE1α protein and 200 nM RNA substrate was used. The indicated compound and IRE1α protein were incubated for 30 min at room temperature before the substrate was added to the reaction. The plate was then kinetically read over one hour at room temperature using a TECAN Spark plate reader. The measurement was carried out using the fluorescence top reading mode at the excitation wavelength of 485 nm and the emission wavelength of 535 nm with a 10 nm excitation and emission bandwidth. The linear part of the reaction curve was adopted and fitted with sample linear regression to obtain the slope, and the slope was adopted to reflect the reaction rate. The inhibition % was calculated by using the equation: inhibition% = 100 × (slope of DMSO control – slope of the sample)/(slope of DMSO control – slope of blank control), DMSO control: DMSO with protein and RNA substrate; Blank control: DMSO with RNA substrate. The IC50 values were calculated using the concentration-response model in GraphPad Prism 9.

The target of experiment [2] is T2, dephosphorylated IRE1α (547–977) (Homo sapiens, UniProt O75460).
T2 construct: Human IRE1α kinase and RNase domain (residues 547–977) was subcloned into pLIB plasmid; His tag (with TEV cleavage site) (N, cleaved yes); made in house; host or cells: Sf9 insect cells, baculovirus (Bac-to-Bac)
Kind of experiment: FRET-based IRE1α RNase activity assay, dephosphorylated IRE1α. The class given is biochemical. The note with it: for inhibition at 50 µM: read-out: IRE1α inhibition%. How it is done:
as §1
as §2, with “9. […]” for “9.”

Setting [3] is: FRET assay, RNase activity, mean (± SEM).
Where [4] appears, read: FRET assay, RNase activity, mean (± SEM), read-out: p-IRE1α IC50.
[5] abbreviates: FRET assay, RNase activity, mean (± SEM), read-out: IRE1α IC50.
[6] abbreviates: FRET assay at 50 μM, mean (± SEM).
The mark [7] stands for this setting: FRET assay, source data, unit from Fig. 3, read-out: p-IRE1a IC50, individual replicates (n1-n4).
Setting [8] is: FRET assay, source data, unit from Fig. 3 / sheet Fig. 2b, read-out: IRE1a IC50, individual replicates (n1-n4).

T1 sequence (O75460 547-977): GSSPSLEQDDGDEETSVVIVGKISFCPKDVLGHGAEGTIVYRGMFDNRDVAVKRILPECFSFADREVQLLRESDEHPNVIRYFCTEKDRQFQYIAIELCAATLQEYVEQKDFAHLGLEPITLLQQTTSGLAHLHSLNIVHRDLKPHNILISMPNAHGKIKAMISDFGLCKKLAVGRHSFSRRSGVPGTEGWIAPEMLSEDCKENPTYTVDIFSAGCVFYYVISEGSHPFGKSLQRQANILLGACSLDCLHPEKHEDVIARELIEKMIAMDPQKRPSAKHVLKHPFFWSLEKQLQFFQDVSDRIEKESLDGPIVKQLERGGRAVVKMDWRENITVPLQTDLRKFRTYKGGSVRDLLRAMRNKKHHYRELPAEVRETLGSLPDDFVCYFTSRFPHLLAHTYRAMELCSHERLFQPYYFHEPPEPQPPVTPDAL
T2 sequence (O75460 547-977): as above

For orientation: IC50 means the concentration that inhibits the measured activity by half. Turning to `COc1ccc2c(c1)c(CCC(=O)O)c(C)n2C(=O)C12CCC(C)(C(=O)O1)C2(C)C` (centres unmarked) [IA92], in experiment [1] (setting [3]), the “p-IRE1α IC50” value is given as “IC₅₀ not reached”. Further, the IC50 in experiment [1] (setting [4]) and in experiment [2] (setting [5]) was more than 20000 nM throughout. The “IRE1α IC50” value in experiment [2] (setting [3]) is recorded as “IC₅₀ not reached”.
In general, inhibition refers to the share of the control response that was lost under treatment. In the case of `Cc1c(CCC(=O)O)c2cc(Br)ccc2n1Cc1ccccc1` [IA164], the “effect on p-IRE1α RNase activity in the FRET assay” value in experiment [1] was “did not show activity”. Further, the “inhibition(%)” value in experiment [1] (p-IRE1a, 0.000847 μM) is -3.310% and -10.444% and -6.973% and -11.312%; in experiment [1] (p-IRE1a, 0.00254 μM) it was -11.263% and -6.154% and -5.913% and -3.985%; in experiment [1] (p-IRE1a, 0.007621 μM), -3.888% and -1.575% and -3.262% and -6.925%; in experiment [1] (p-IRE1a, 0.022862 μM), -9.528% and -12.854% and -7.504% and -7.552%; in experiment [1] (p-IRE1a, 0.205761 μM), -14.011% and -13.481% and -9.046% and -6.299%; in experiment [1] (p-IRE1a, 0.617284 μM) it was -12.951% and -9.625% and -7.070% and -4.226%. Also, the “inhibition(%)” value in experiment [1] (p-IRE1a, 1.85185 μM) is -7.504% and -4.708% and -6.877% and -5.527%; in experiment [1] (p-IRE1a, 5.55556 μM), -7.793% and -8.660% and -17.192% and -15.216%; in experiment [2] (IRE1a, 5.55556 μM), 18.332% and 22.563% and 19.929%. Also, the “effect on IRE1α RNase activity in the FRET assay” value in experiment [2] is listed as “did not show activity; also recorded: complete loss of activity”. The compound further came in with an inhibition at 5.55556 µM in experiment [2] (IRE1a, 5.55556 μM) of 11.3%.
With `O=C(O)Cc1c[nH]c2ccccc12` [auxin, reference compound], the IRE1α inhibition% in experiment [2] (setting [6]) is given as not above 50%.
`Cc1c(CCC(=O)O)c2ccccc2n1C(=O)c1ccccc1` [IA104]: the IC50 in experiment [1] (setting [4]) was 1050 nM; in experiment [1] (setting [7]), 446 nM and 627 nM and 2070 nM; in experiment [2] (setting [5]) it was 340 nM; in experiment [2] (setting [8]), 173 nM and 171 nM and 675 nM.
Regarding `COc1ccc2c(c1)c(CCC(=O)O)c(C)n2C(=O)C1CCOCC1` [IA81], the IC50 is 5610 nM and 5600 nM in experiment [1] (setting [4]); 5640 nM and 7330 nM and 3850 nM in experiment [1] (setting [7]); 2040 nM in experiment [2] (setting [5]); 1900 nM and 2230 nM and 1980 nM in experiment [2] (setting [8]).
For the compound `Cc1c(CCC(=O)O)c2cc(-c3ccccc3C#N)ccc2n1C(=O)c1ccccc1` [IA159], the IC50 was 28300 nM in experiment [1] (setting [4]); 34900 nM and 21700 nM in experiment [1] (setting [7]); 6220 nM and 6230 nM in experiment [2] (setting [5]); 5530 nM and 6930 nM in experiment [2] (setting [8]).
For `CCc1c(C)n(C(=O)c2ccc(Cl)cc2)c2ccc(OC)cc12` [cms01], the inhibition at 50 µM in experiment [1] (mean (± SEM)) and in experiment [2] (setting [6]) was less than 30% each time.
Turning to `COc1ccc2c(c1)c(C(C)=O)c(C)n2C(=O)c1ccc(Cl)cc1` [cms08], the inhibition at 50 µM in experiment [1] (mean (± SEM)) and in experiment [2] (setting [6]) was less than 30% throughout.
Consider `COc1ccc2c(c1)c(CCC(=O)O)c(C)n2C(=O)c1ccncc1` [IA93], for which the IC50 is 340 nM in experiment [1] (setting [4]); 198 nM and 428 nM and 403 nM in experiment [1] (setting [7]); 180 nM in experiment [2] (setting [5]); 141 nM and 211 nM and 201 nM in experiment [2] (setting [8]).
Turning to `COc1ccc2c(c1)c(Cc1ccccc1)c(C)n2C(=O)c1ccc(Cl)cc1` [cms09], the inhibition at 50 µM in experiment [1] (mean (± SEM)) and in experiment [2] (setting [6]) was less than 30% throughout.
Turning to `Cc1c(CCC(=O)O)c2cc(-c3ccc(C(F)(F)F)cc3)ccc2n1C(=O)c1ccccc1` [IA145], the IC50 in experiment [1] (setting [4]) was 43200 nM; in experiment [1] (setting [7]) it was 40700 nM and 46900 nM and 42100 nM; in experiment [2] (setting [5]) it was 13400 nM; in experiment [2] (setting [8]) it was 14100 nM and 14200 nM and 11900 nM.
For the compound `COc1ccc2c(c1)c(Cc1ccc(O)cc1)c(C)n2C(=O)c1ccc(Cl)cc1` [cms10], the inhibition at 50 µM in experiment [1] (mean (± SEM)) and in experiment [2] (setting [6]) was less than 30% throughout.
As to `Cc1c(CCC(=O)O)c2cc(-c3ccc(O)cc3)ccc2n1C(=O)c1ccccc1` [IA163], in experiment [1] (setting [3]), the “p-IRE1α IC50” value is “IC₅₀ not reached”. Besides, the IC50 in experiment [1] (setting [4]) was more than 20000 nM; in experiment [2] (setting [5]) it was 7410 nM; in experiment [2] (setting [8]), 6380 nM and 8450 nM.
Take `CC(=O)c1ccc(-c2ccc3c(c2)c(CCC(=O)O)c(C)n3C(=O)c2ccccc2)s1` [IA162]: the IC50 was 15100 nM in experiment [1] (setting [4]); 15800 nM and 14400 nM in experiment [1] (setting [7]); 4730 nM in experiment [2] (setting [5]); 3280 nM and 6180 nM in experiment [2] (setting [8]).
Regarding `COC(=O)CCc1c(C)n(C(=O)c2ccc(Cl)cc2)c2ccc(OC)cc12` [cms04], the inhibition at 50 µM in experiment [1] (mean (± SEM)) and in experiment [2] (setting [6]) was less than 30% each time.
As to `Cc1c(CCC(=O)O)c2ccccc2n1C(=O)c1cccc(C#N)c1` [IA41], the half-inhibitory concentration (IC50) in experiment [1] (p-IRE1a, individual replicates (n1-n3), Supplementary Fig. 2b, 2c, read-out: IC50) is 4900 nM and 768 nM; in experiment [1] (p-IRE1a, mean, Supplementary Fig. 2b, 2c, read-out: IC50, mean), 2840 nM; in experiment [2] (IRE1a, individual replicates (n1-n4), Supplementary Fig. 2b, 2c, read-out: IC50) it was 2320 nM and 4340 nM and 2120 nM; in experiment [2] (IRE1a, mean, Supplementary Fig. 2b, 2c, read-out: IC50, mean), 2930 nM.
`COc1ccc2c(c1)c(CCC(=O)O)c(C)n2C(=O)c1ccc2c(c1)C(=O)c1ccccc1C2=O` [IA32]: the concentration for half-maximal inhibition (IC50) in experiment [1] (setting [4]) was 610 nM; in experiment [1] (setting [7]), 1080 nM and 593 nM and 159 nM; in experiment [2] (setting [5]), 760 nM; in experiment [2] (setting [8]), 589 nM and 971 nM and 1100 nM and 378 nM.
As to `COc1ccc2c(c1)c(CCC(=O)O)c(C)n2C(=O)c1ccc(Br)cc1` [IA02], the IC50 in experiment [1] (setting [4]) is 1960 nM; in experiment [1] (setting [7]), 2090 nM and 2100 nM and 1670 nM; in experiment [2] (setting [5]) it was 1460 nM; in experiment [2] (setting [8]) it was 869 nM and 1330 nM and 2170 nM.
On to `Cc1c(CCC(=O)O)c2cc(-c3cn[nH]c3)ccc2n1C(=O)c1ccccc1` [IA158], for which the IC50 in experiment [1] (setting [4]) is 2340 nM; in experiment [1] (setting [7]), 3180 nM and 1500 nM; in experiment [2] (setting [5]), 700 nM; in experiment [2] (setting [8]) it was 708 nM and 693 nM.
